Assay results as given in US12128040B2, “Selective estrogen receptor degraders” (Eli Lilly and Company, priority 2018, dated 2024).

Assays:
[1] = molecular target: T1, ERα (wild type) (Homo sapiens, UniProt P03372); assay: ERα (wild type) competition binding assay; details: recombinant ERα wild type, 3H-estradiol competition, n=3
T1 sequence (P03372 1-595): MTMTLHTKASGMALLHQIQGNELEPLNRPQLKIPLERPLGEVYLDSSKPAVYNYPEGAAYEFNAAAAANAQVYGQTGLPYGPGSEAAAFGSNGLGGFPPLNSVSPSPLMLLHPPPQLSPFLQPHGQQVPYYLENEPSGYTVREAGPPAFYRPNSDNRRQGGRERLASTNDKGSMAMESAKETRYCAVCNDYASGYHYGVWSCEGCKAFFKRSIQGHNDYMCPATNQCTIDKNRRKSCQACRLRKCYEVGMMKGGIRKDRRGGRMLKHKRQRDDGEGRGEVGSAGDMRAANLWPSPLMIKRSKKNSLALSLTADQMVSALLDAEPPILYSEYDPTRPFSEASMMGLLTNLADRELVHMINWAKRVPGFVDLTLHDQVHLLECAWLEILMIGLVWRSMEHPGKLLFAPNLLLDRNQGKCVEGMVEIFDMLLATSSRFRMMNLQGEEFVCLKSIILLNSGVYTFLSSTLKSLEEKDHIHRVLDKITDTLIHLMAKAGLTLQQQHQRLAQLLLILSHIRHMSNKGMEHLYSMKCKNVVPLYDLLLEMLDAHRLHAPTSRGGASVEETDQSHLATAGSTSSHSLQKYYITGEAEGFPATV
Description: The purpose of the following ER competition binding assays is to determine the binding affinity of a test compound against ERα (wild type) and ERα (Y537S mutant) See Fanning et al., “Estrogen receptor alpha somatic mutations Y537S and D538G confer breast cancer endocrine resistance by stabilizing the activating function-2 binding conformation,” eLife 2016; 5:e12792.
Run the competition binding assay in a buffer containing 50 mM HEPES, pH 7.5, 1.5 mM EDTA, 150 mM NaCl, 10% glycerol, 1 mg/mL ovalbumin, and 5 mM DTT, using 0.025 µCi per well ^3H-estradiol (118 Ci/mmol, 1 mCi/mL), 7.2 ng/well ERα (wild type), or 7.2 ng/well ERα (Y537S mutant). Add the test compound at 10 different concentrations ranging from 10,000 nM to 0.5 nM, and determine nonspecific binding in the presence of 1 μM of […]. Incubate the binding reaction (140 μL) for 4 hours at room temperature, and then add cold dextran-charcoal buffer (70 μL) (containing per 50 mL of assay buffer, 0.75 g of charcoal and 0.25 g of dextran) to each reaction. Mix the plates for 8 minutes on an orbital shaker at 4° C. and then centrifuge at 3000 rpm at 4° C. for 10 minutes. […] After an incubation of 2.5 hours, read the plates in a Wallac Microbeta counter. […]

[2] = tested on: ERα receptor; assay: PRα inhibition (ERα functional antagonism) cell assay in MCF7 cells; assay type: cell-based; details: Homo sapiens, pretreated with 0.47 nM estradiol, n=15, read-out: Relative IC50 (nM), PRα inhibition
Source text: The purpose of the following PRα inhibition (ERα functional antagonism) cell assay is to determine the antagonistic activity of a test compound against the ERα receptor. An antagonist in this assay is expected to block the function of the ERα receptor.
Carry out the assay conditions as detailed in the ERα degradation Cell base Acumen assay above, using the MCF7 cell line except that, prior to test compound dispensing, remove the media from the cell plate and pretreat all wells except for the negative control wells (column 24 of the plate) with assay media containing 0.47 nM estradiol for 30 minutes. In this assay, carry out immunostaining for the detection of PRα and scan the plates with ACUMEN EXPLORER™ [Laser-scanning fluorescence microplate cytometer manufactured by TTP LABTECH LTD] to measure PRα. Image analysis is based on cellular fluorescent signals for identifying positive cells. Identify PRα positive cells by mean intensity. Use total intensity at 575-640 from propidium iodide/DNA to identify individual cells. Assay output is % PRα positive cells. Determine the IC50 by curve fitting to a four parameter logistic for each output using GENE DATA™.

Compound: O=C(c1ccc(OCCN2CC(CF)C2)cc1)c1c(-c2ccc(C(F)(F)F)cc2F)cnc2cc(O)ccc12 [Example 1, (4-{2-[3-(Fluoromethyl)azetidin-1-yl]ethoxy}phenyl){3-[2-fluoro-4-(trifluoromethyl)phenyl]-7-hydroxyquinolin-4-yl}methanone]
- Ki [1]: 3.78 ± 0.74 nM
- IC50 [2]: 15.8 ± 9.04 nM
